Data as given in ChEMBL document CHEMBL3044917, “Multicomponent one-pot synthesis of 2-naphthol derivatives and evaluation of their anticancer activity” (Med Chem Res, 2012).

What was measured:
Type in all cases: functional, cell-based
[1] = Cytotoxicity against Homo sapiens (human) MDA231 cells after 48 hr by MTT assay; conditions: MDA-MB-231, 48 h
HeLa = assay: Cytotoxicity against Homo sapiens (human) HeLa cells after 48 hr by MTT assay
A549 = assay: Cytotoxicity against Homo sapiens (human) A549 cells after 48 hr by MTT assay; conditions: A549, 48 h
HepG2 = assay: Cytotoxicity against Homo sapiens (human) HepG2 cells after 48 hr by MTT assay; conditions: HepG2, 48 h

SMILES | IC50 [1] | IC50 (HeLa) | IC50 (A549) | IC50 (HepG2)
C=CCC(c1ccc(C(C)C)cc1)c1c(O)ccc2ccccc12 (stereo unspecified) | 16.5 µM | 12.5 µM | 13.5 µM | 15 µM
C=CCC(c1ccccc1)c1c(O)ccc2ccccc12 (stereo unspecified) | 33 µM | 76 µM | 59 µM | 53 µM
C=CCC(c1cccc(F)c1)c1c(O)ccc2ccccc12 (stereo unspecified) | 9.1 µM | 8.8 µM | 8.6 µM | 6.5 µM
C=CCC(c1ccc(F)cc1)c1c(O)ccc2ccccc12 (stereo unspecified) | < 1 µM | < 1 µM | 1.6 µM | 1.2 µM
C=CCC(c1ccc(Cl)cc1)c1c(O)ccc2ccccc12 (stereo unspecified) | 7.6 µM | 6.4 µM | 9.6 µM | 7.4 µM
C=CCC(c1ccc(C)cc1)c1c(O)ccc2ccccc12 (stereo unspecified) | 6 µM | 6.2 µM | 6.8 µM | 5.6 µM
C=CCC(c1ccccc1F)c1c(O)ccc2ccccc12 (stereo unspecified) | 6.6 µM | 6.8 µM | 7.8 µM | 9.7 µM
COc1cccc2c1C(=O)c1c(O)c3c(c(O)c1C2=O)C[C@@](O)(C(=O)CO)C[C@@H]3O[C@H]1C[C@H](N)[C@H](O)[C@H](C)O1 [DOXORUBICIN] | < 1 µM | < 1 µM | < 1 µM | –
